In patent publication US9980907B2, “Thermolabile liposome with a controlled release temperature” (Max-Planck-Gesellschaft zur Förderung der Wissenschaften …, priority 2002, dated 2018):

Experiment: main transition temperature (TM) of phosphatidylcholines
Assay type: physicochemical
Details: phosphatidylcholine; acyl chains on positions 1 and 2 of glycero-3-phosphocholine or 1 and 3 of glycero-2-phosphocholine
Procedure: The abovementioned preferred composition of the liposome according to the invention can be tailor-made for other temperature ranges by choice of components with the main transition temperature suitable in each case. In table 1, the main transition temperatures (TM) of phosphatidylcholines whose main transition temperatures lie in the range from 0 to 80° C. are indicated.

Structure (SMILES) | TM (main transition temperature)
CCCCCCCCCCCCCCCCCCCC(=O)OCC(COP(=O)([O-])OCC[N+](C)(C)C)OC(=O)CCCCCCCCCCCCCCCCCCC (stereo not drawn) [1,2-diarachinoyl-] | 66 °C
CCCCCCCCCCCCCCCCCCCCCCCC(=O)OCC(COP(=O)([O-])OCC[N+](C)(C)C)OC(=O)CCCCCCCCCCCCCCCCCCCCCCC (stereo not drawn) [1,2-dilignoceroyl-] | 80 °C
CCCCCCCCCCCCCC(=O)OCC(COP(=O)([O-])OCC[N+](C)(C)C)OC(=O)CCCCCCCCCCCCC (stereo not drawn) [1,2-dimyristoyl-] | 23 °C
CCCCCCCCCCCCCCCC(=O)OC[C@H](COP(=O)([O-])OCC[N+](C)(C)C)OC(=O)CCCCCCCCCCCCCCC [1,2-dipalmitoyl-, 1,2-dipalmitoyl-sn-glycero-3-phosphocholine] | 41 °C
CCCCCCCCCCCCCCCCCC(=O)OC[C@H](COP(=O)([O-])OCC[N+](C)(C)C)OC(=O)CCCCCCCCCCCCCCCCC [1,2-distearoyl-, 1,2-distearoyl-sn-glycero-3-phosphocholine] | 56 °C
CCCCCCCC/C=C\CCCCCCCC(=O)OC(COC(=O)CCCCCCCCCCCCCCCCCCCCC)COP(=O)([O-])OCC[N+](C)(C)C (stereo not drawn) [1-behenoyl-2-oleoyl-] | 14 °C
CCCCCCCCCCCCCCCC(=O)OCC(COP(=O)([O-])OCC[N+](C)(C)C)OC(=O)CCCCCCCCCCC (stereo not drawn) [1-palmitoyl-2-lauroyl-] | 11 °C
CCCCCCCCCCCCCCCC(=O)OCC(COP(=O)([O-])OCC[N+](C)(C)C)OC(=O)CCCCCCCCCCCCC (stereo not drawn) [1-palmitoyl-2-myristoyl-] | 27 °C
CCCCCCCC/C=C\CCCCCCCC(=O)OC(COC(=O)CCCCCCCCCCCCCCC)COP(=O)([O-])OCC[N+](C)(C)C (stereo not drawn) [1-palmitoyl-2-oleoyl-] | 5 °C
CCCCCCCCCCCCCCCCCC(=O)OCC(COP(=O)([O-])OCC[N+](C)(C)C)OC(=O)CCCCCCCCCCC (stereo not drawn) [1-stearoyl-2-lauroyl-] | 17 °C
CCCCCCCCCCCCCCCCCC(=O)OCC(COP(=O)([O-])OCC[N+](C)(C)C)OC(=O)CCCCCCCCCCCCC (stereo not drawn) [1-stearoyl-2-myristoyl-] | 33 °C
CCCCCCCC/C=C\CCCCCCCC(=O)OC(COC(=O)CCCCCCCCCCCCCCCCC)COP(=O)([O-])OCC[N+](C)(C)C (stereo not drawn) [1-stearoyl-2-oleoyl-] | 7 °C
